Measured values from PMC4252588 (FEBS letters, 2014).
Read-outs that look alike come from different tables or passages of the source.

Experiments:
Y-CYP51A [1] = target: T1, Y-CYP51A (Trypanosoma cruzi, UniProt Q7Z1V1, P355S); assay: Type 2 spectral response titration with inhibitors; assay type: binding; settings: calculated from the Y-CYP51A titration curves; [P450] 0.4 µM
L. infantum CYP51 = settings: cited from earlier work
[2] = test system: Y strain T. cruzi amastigotes; assay: Cellular infection assay, human stage; assay type: cell-based, Trypanosoma cruzi
[3] = test system: Y strain T. cruzi epimastigotes; assay: Insect stage; assay type: cell-based, Trypanosoma cruzi; settings: insect stage of Y T. cruzi; 1 µM
Tulahuen CYP51 [4] = target: T2, Tulahuen CYP51 (Trypanosoma cruzi, UniProt Q7Z1V1); assay: Reconstituted CYP51 activity assay, eburicol 14α-demethylation; assay type: biochemical
T. brucei CYP51 = settings: cited from earlier work
Tulahuen CYP51 [5] = target: T2, Tulahuen CYP51; settings: Tulahuen T. cruzi CYP51; cited from earlier work
Tulahuen T. cruzi = settings: cells infected by Tulahuen T. cruzi; cited from earlier work
[6] = test system: Tulahuen strain of T. cruzi; settings: mice infected with Tulahuen strain; cited from earlier work
Tulahuen CYP51 [7] = target: Tulahuen CYP51 (Trypanosoma cruzi, UniProt Q7Z1V1, A9G); assay: Type 1 spectral response, substrate binding
Y-CYP51A [8] = target: T1, Y-CYP51A; assay: Type 1 spectral response, substrate binding
Y-CYP51A [9] = target: T1, Y-CYP51A; assay: Reconstituted CYP51 activity assay, eburicol 14α-demethylation; assay type: biochemical
[10] = Tulahuen CYP51, inhibitor/enzyme/substrate 1:1:100, 1 h

SMILES: O=C(N[C@@H](Cn1ccnc1)c1ccc(-c2ccc(F)cc2)cc1F)c1ccc(-c2nnc(-c3ccccc3)o2)cc1 [VFV, (R)-N-(1-(3,4'-difluorobiphenyl-4-yl)-2-(1H-imidazol-1-yl)ethyl)-4-(5-phenyl-1,3,4-oxadiazol-2-yl)benzamide]
- Apparent binding efficiency (Y-CYP51A [1]): 87
- Inhibitory potency (L. infantum CYP51): equally potent
- Antiparasitic potency compared with VNI ([2]; human stage of Y T. cruzi, H9C2 cells, 48 h): higher antiparasitic potency
- Antiparasitic potency compared with VNI [3]: higher antiparasitic potency
- Inhibition at I/E/S molar ratio 1:1:100, one hour reaction (Tulahuen CYP51 [4]; [10]): 100%
- Inhibitory potency (T. brucei CYP51): equally potent
- Inhibitory potency (Tulahuen CYP51 [5]): equally potent

SMILES: O=C(N[C@@H](Cn1ccnc1)c1ccc(Cl)cc1Cl)c1ccc(-c2nnc(-c3ccccc3)o2)cc1 [VNI, (R)-N-(1-(2,4-dichlorophenyl)-2-(1H-imidazol-1-yl)ethyl)-4-(5-phenyl-1,3,4-oxadiazol-2-yl)benzamide]
- Apparent binding efficiency (Y-CYP51A [1]): 9
- Concentration that completely eradicates the parasite (Tulahuen T. cruzi): 8 nM
- EC50 (Tulahuen T. cruzi): 1.3 nM
- Outcome of treatment [6]: cure both the acute and chronic models of Chagas disease
- EC50 ([2]; Trypanosoma cruzi, Vero, in Homo sapiens): > 5 nM
- Amastigotes within host cells after treatment ([2]; cardiomyoblasts and Vero cells, up to 1 µM): some trace of amastigotes being observed
- Inhibition at I/E/S molar ratio 1:1:100, one hour reaction (Tulahuen CYP51 [4]): 100%
- Inhibition of the enzyme (Tulahuen CYP51 [4]): completely inhibited

SMILES: O=C(N[C@@H](Cn1cncn1)c1ccc(Cl)cc1Cl)c1ccc(-c2nnc(-c3ccccc3)o2)cc1 [VNT, (R)-N-(1-(2,4-dichlorophenyl)-2-(1H-1,2,4-triazol-1-yl)ethyl)-4-(5-phenyl-1,3,4-oxadiazol-2-yl)benzamide]
- Apparent binding efficiency (Y-CYP51A [1]): 2
- Inhibitory potency (L. infantum CYP51): weaker inhibitory effect
- Inhibition of the enzyme (Tulahuen CYP51 [4]; Tulahuen CYP51, equimolar amounts of inhibitor): completely inhibited
- Inhibition at I/E/S molar ratio 1:1:100, one hour reaction (Tulahuen CYP51 [4]; [10]): 100%
- Inhibitory potency (T. brucei CYP51): weaker inhibitory effect
- Inhibitory potency (Tulahuen CYP51 [5]): as potent as VNI

SMILES: C=C(CCC(C)C1CCC2(C)C3=C(CCC12C)C1(C)CCC(O)C(C)(C)C1CC3)C(C)C (stereo not drawn) [Substrate, eburicol]
- Kd (Tulahuen CYP51 [7]): 800 nM
- ΔA (% low-to-high spin transition) (Tulahuen CYP51 [7]; Tulahuen CYP51): 36%
- Kd (Y-CYP51A [8]): 1540 nM
- ΔA (% low-to-high spin transition) (Y-CYP51A [8]; Y-CYP51A): 48%
- Turnover number (Tulahuen CYP51 [4]; Tulahuen CYP51): 5.6±0.3 nmol substrate/nmol P450 /min
- Turnover number (Y-CYP51A [9]): 2.0±0.2 nmol substrate/nmol P450 /min
